Measured values as given in publication PMC4738285 (Scientific Reports, 2016).

Columns and labels:
[1] = system: HeLa cells; type: cell-based, human
[2] = target: T1, Hsc70 (Homo sapiens, UniProt P11142); assay: biochemical; type: biochemical; set-up: made in house
[3] = target: T2, Hsp70 (Homo sapiens, UniProt P0DMV8); assay: biochemical; set-up: made in house
[4] = target: T2, Hsp70; details: ITC, 20 °C
[5] = target: T2, Hsp70; type: biochemical; set-up: made in house; details: concentrations up to 200 μM; 0.5 μM Hsp70, 1 mM ATP
[6] = system: SH-SY5Y; assay: cells; type: cell-based; details: Homo sapiens, 48 h, read-out: EC50 value
[7] = target: T2, Hsp70; type: binding; set-up: made in house; details: 500 nM Hsp70, 50 μM 1; five of six regions
[8] = system: HEK-293; assay: cells; type: cell-based; details: Homo sapiens, HEK293, 48 h, read-out: EC50 value
[9] = system: HeLa cells; type: cell-based, human; remark: listed apart in the source
[10] = target: T2, Hsp70; type: binding; set-up: made in house; details: HeLa cell lysate
[11] = system: HT-29; assay: cells; type: cell-based; details: Homo sapiens, HT-29, 48 h, read-out: EC50 value
[12] = system: HeLa cells; type: cell-based, human; remark: listed apart in the source
[13] = target: T1, Hsc70; type: binding; set-up: endogenous in cells; host or cells: HeLa cell lysate; details: HeLa cell lysate
[14] = system: HeLa cells; type: cell-based, human; remark: listed apart in the source
[15] = system: HeLa; assay: cells; type: cell-based; details: Homo sapiens, 48 h, read-out: EC50 value
[16] = system: HeLa cells; details: human, 24 h
[17] = target: T2, Hsp70; assay: biochemical
[18] = system: HeLa cells; assay: cells; type: cell-based; details: Homo sapiens; for EC50: read-out: EC50 cell survival, clonogenic assay; for IC50: read-out: IC50 survival, clonogenic assay
[19] = system: C. perfringens iota toxin on Vero cells; type: cell-based, African green monkey
[20] = system: C. perfringens iota toxin on Vero cells; type: cell-based, African green monkey; remark: listed apart in the source
[21] = target: Hsp70; details: read-out: dissociation constant; cited from earlier work
[22] = system: iota toxin receptor binding on Vero cells; type: cell-based, African green monkey; details: 4 °C, 30 min
[23] = system: Ia of C. perfringens iota toxin; type: biochemical, Clostridium perfringens

T2 sequence (P0DMV8 whole entry): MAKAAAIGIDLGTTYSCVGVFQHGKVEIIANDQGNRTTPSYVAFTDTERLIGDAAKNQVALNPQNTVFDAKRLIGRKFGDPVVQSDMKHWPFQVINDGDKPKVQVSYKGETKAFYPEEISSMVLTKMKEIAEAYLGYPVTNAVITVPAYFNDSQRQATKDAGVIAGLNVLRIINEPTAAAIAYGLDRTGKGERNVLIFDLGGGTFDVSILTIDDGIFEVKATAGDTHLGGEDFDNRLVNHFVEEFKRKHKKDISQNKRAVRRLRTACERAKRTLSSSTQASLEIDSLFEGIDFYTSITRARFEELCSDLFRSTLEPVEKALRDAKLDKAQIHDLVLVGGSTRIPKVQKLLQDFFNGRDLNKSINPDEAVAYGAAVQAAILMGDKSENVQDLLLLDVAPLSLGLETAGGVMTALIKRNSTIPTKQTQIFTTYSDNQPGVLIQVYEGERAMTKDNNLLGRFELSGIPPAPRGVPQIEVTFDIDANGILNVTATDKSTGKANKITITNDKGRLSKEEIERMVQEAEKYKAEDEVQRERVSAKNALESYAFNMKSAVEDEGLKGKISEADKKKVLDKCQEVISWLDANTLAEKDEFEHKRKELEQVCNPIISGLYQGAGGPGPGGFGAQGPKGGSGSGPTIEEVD
T1 sequence (P11142 whole entry): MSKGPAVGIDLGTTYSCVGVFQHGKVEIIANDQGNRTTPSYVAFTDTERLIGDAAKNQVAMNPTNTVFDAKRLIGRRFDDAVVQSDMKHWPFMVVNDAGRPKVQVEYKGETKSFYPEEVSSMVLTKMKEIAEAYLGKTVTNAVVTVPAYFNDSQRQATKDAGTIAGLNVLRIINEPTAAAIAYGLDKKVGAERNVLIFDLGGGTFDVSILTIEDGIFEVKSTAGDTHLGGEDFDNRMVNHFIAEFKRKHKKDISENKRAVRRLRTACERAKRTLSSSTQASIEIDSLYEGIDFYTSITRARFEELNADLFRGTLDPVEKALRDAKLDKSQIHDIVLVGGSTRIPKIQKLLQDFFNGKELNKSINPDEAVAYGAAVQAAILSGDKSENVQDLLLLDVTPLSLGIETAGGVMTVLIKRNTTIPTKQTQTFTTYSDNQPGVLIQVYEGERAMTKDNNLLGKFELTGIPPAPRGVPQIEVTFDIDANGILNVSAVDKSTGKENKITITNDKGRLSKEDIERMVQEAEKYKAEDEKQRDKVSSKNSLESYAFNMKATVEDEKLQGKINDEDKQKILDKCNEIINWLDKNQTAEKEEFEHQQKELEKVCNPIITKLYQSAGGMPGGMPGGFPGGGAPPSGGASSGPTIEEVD

## Nc1ccc2c[n+]3ccccc3cc2c1 [Compound 1]
[1]
  amount of Hsp70 in HeLa cells: did not influence
[2]
  IC50: 363 ± 20 µM
[2]; luciferase refolding
  Inhibition of Hsc70 less efficient compared to Hsp70: 8 fold
[3]
  IC50: 45 ± 4 µM
[4]
  stoichiometry N: 1.1
[4]; pH 7.8
  TΔSITC: 8.3 kcal/mol
  binding enthalpy ΔHITC: 1.3 ± 0.3 kcal/mol
  ΔGITC: -7.0 kcal/mol
[5]
  ATPase activity of Hsp70: remained unaffected
[6]
  EC50: 58.1 ± 4.6 µM
[7]
  Hsp70 binding to p53-derived peptide regions in the presence of 1: abolished
[8]
  EC50: 29.1 ± 1.1 µM
[9]
  accumulation in G2/M phase: did not accumulate in the G2/M phase
  cell cycle phase distribution: did not result in changes
  cells remaining in G2/M: > 20%
[10]
  Hsp70 bound to matrix-coupled 1: detection of Hsp70
[11]
  EC50: 71.6 ± 34 µM
[12]
  cytoplasmic vacuolization after heat stress: strong cytoplasmic vacuolization
  localization of Hsp70 at 37 °C: did not alter
  localization of Hsp70 at 42 °C: dramatic Hsp70 re-distribution into the whole nucleus
  subcellular distribution of Hsp70 in thymidine- and nocodazole-treated cells: did not change
[13]
  Hsc70 bound to matrix-coupled 1: no detectable amount of Hsc70
[14]
  apoptosis induction by staurosporine: enhanced apoptosis induction
  cleavage of procaspases 3 and 7 in combination with staurosporine: synergistic effect
  procaspase cleavage, compound alone: did not result in significant procaspase cleavage
[15]
  EC50: 19.5 ± 2.5 µM
[16]
  compound remaining intact in HeLa cell lysate: 90%
[17]
  Kd: 5.6 ± 3.1 µM
[18]
  EC50: 11.2 µM
  IC50: 11.2 µM
[19]
  toxin-induced cell-rounding: significantly delayed

## c1cc[n+]2cc3ccc(N4CCCC4)cc3cc2c1 [Compound 2]
[2]
  IC50: 34 ± 3 µM
[3]
  IC50: 127 ± 7 µM

## CSc1ccc2c[n+]3ccccc3cc2c1 [Compound 3]
[2]
  IC50: 931 ± 47 µM
[3]
  IC50: 1050 ± 53 µM
[6]
  EC50: 70 ± 10.5 µM
[8]
  EC50: 22.6 ± 1.3 µM
[11]
  EC50: 115 ± 52.4 µM
[12]
  localization of Hsp70 at 37 °C: did not alter
  localization of Hsp70 at 42 °C: did not alter
[14]
  cleavage of procaspases 3 and 7 in combination with staurosporine: did not result in significant procaspase cleavage
  procaspase cleavage, compound alone: did not result in significant procaspase cleavage
[15]
  EC50: 35.8 ± 12.4 µM
[16]
  compound remaining intact in HeLa cell lysate: 90%
[18]
  EC50: 13.1 µM
  IC50: 13.1 µM
[19]
  intoxication of Vero cells with iota toxin: no comparable inhibitory effect

## F[B-](F)(F)F.[Na+] [NaBF4]
[14]
  apoptosis of HeLa cells, salt with staurosporine: do not affect

## [Br-].[Na+] [NaBr]
[14]
  apoptosis of HeLa cells, salt with staurosporine: do not affect

## N#Cc1ccc(COC[C@H]2O[C@@H](n3c(NCc4ccc(Cl)c(Cl)c4)nc4c(N)ncnc43)[C@H](O)[C@@H]2O)cc1 [VER-155008]
[20]
  round cells after acidic pulse (translocation of Ia): significantly less round cells
[21]
  Kd: 0.3 µM
[22]
  binding of iota toxin to the cells: had no effect
[23]
  enzyme activity of Ia: had no effect
[19]
  intoxication of the cells with iota toxin: inhibitory effect

## C[C@@H]1C[C@H]2O[C@@H]2/C=C\C=C\C(=O)Cc2c(Cl)c(O)cc(O)c2C(=O)O1 [radicicol]
[20]
  round cells after acidic pulse (translocation of Ia): significantly less round cells
[22]
  binding of iota toxin to the cells: had no effect
[23]
  enzyme activity of Ia: had no effect
